# Assay results reported in patent US11352339B2 (MISSION THERAPEUTICS LIMITED, priority 2016, dated 2022).
# Target: USP30 (Homo sapiens (Human), UniProt Q70CQ3)
# Experiment: USP30 Biochemical IC50 Assay
# Conditions: fluorescence polarisation, TAMRA labelled peptide linked to ubiquitin; 30 min pre-incubation, read after 2 h; read-out: IC50 range
# In short: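 Enzyme preincubated 30 min at room temperature with compound, then 50 nM TAMRA-labelled isopeptide-linked ubiquitin–peptide substrate added. Fluorescence polarisation (ex 540/em 590 nm) read at once and after 2 h at room temperature; duplicate reactions.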
# USP30, sequence (Q70CQ3 57-517): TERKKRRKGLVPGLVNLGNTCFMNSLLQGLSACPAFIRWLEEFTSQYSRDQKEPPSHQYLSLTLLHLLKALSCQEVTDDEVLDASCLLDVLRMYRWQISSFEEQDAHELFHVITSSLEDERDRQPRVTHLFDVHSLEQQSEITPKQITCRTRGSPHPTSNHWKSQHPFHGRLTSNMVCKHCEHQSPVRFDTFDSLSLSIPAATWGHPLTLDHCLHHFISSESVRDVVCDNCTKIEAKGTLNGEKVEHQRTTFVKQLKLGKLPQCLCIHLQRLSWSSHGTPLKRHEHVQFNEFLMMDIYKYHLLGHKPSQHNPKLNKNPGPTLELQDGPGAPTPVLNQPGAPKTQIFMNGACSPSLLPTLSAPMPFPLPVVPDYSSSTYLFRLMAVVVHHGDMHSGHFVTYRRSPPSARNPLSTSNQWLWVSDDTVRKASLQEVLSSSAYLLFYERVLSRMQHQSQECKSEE
row,SMILES,IC50
1,"N#Cc1cccc(-c2cc(-c3nc(C4CCCN4C#N)no3)ccn2)n1 (centres unmarked) [Example 180, 4′-(3-(1-Cyanopyrrolidin-2-yl)-1,2,4-oxadiazol-5-yl)-[2,2′-bipyridine]-6-carbonitrile]",100 to 1000 nM
2,"N#Cc1cc(-c2cc(-c3nc([C@@H]4CCCN4C#N)no3)ccn2)ccn1 [Example 181, (S)-4-(3-(1-Cyanopyrrolidin-2-yl)-1,2,4-oxadiazol-5-yl)-[2,4′-bipyridine]-2 carbonitrile]",< 100 nM
3,"N#Cc1cc(-c2ccnc(-c3nc([C@@H]4CCCN4C#N)no3)c2)ccn1 [Example 182, (S)-2′-(3-(1-Cyanopyrrolidin-2-yl)-1,2,4-oxadiazol-5-yl)-[4,4′-bipyridine]-2-carbonitrile]",100 to 1000 nM
4,"N#Cc1cc(-c2cccc(-c3nc([C@@H]4CCCN4C#N)no3)n2)ccn1 [Example 183, (S)-6-(3-(1-Cyanopyrrolidin-2-yl)-1,2,4-oxadiazol-5-yl)-[2,4′-bipyridine]-2 carbonitrile]",< 100 nM
5,"N#CN1CCCC1c1noc(-c2ccnc(-c3cccc(OC(F)(F)F)c3)n2)n1 (centres unmarked) [Example 184, 2-(5-(2-(3-(Trifluoromethoxy)phenyl)pyrimidin-4-yl)-1,2,4-oxadiazol-3-yl)pyrrolidine-1-carbonitrile]",< 100 nM
6,"N#Cc1ccc(-c2nccc(-c3nc([C@@H]4CCCN4C#N)no3)n2)cc1 [Example 185, (S)-2-(5-(2-(4-Cyanophenyl)pyrimidin-4-yl)-1,2,4-oxadiazol-3-yl)pyrrolidine-1-carbonitrile]",100 to 1000 nM
7,"N#Cc1cccc(-c2nccc(-c3nc([C@@H]4CCCN4C#N)no3)n2)c1 [Example 186, (S)-2-(5-(2-(3-Cyanophenyl)pyrimidin-4-yl)-1,2,4-oxadiazol-3-yl)pyrrolidine-1-carbonitrile]",< 100 nM
8,"N#Cc1cnn(-c2nccc(-c3nc([C@@H]4CCCN4C#N)no3)n2)c1 [Example 187, (S)-1-(4-(3-(1-Cyanopyrrolidin-2-yl)-1,2,4-oxadiazol-5-yl)pyrimidin-2-yl)-1H-pyrazole-4-carbonitrile]",100 to 1000 nM
9,"N#Cc1cc(-c2nccc(-c3nc([C@@H]4CCCN4C#N)no3)n2)ccn1 [Example 188, (S)-4-(4-(3-(1-Cyanopyrrolidin-2-yl)-1,2,4-oxadiazol-5-yl)pyrimidin-2-yl)picolinonitrile]",< 100 nM
10,"N#Cc1cccc(-c2cc(-c3nc(C4CCCN4C#N)no3)ncn2)c1 (centres unmarked) [Example 189, 2-(5-(6-(3-Cyanophenyl)pyrimidin-4-yl)-1,2,4-oxadiazol-3-yl)pyrrolidine-1-carbonitrile]",100 to 1000 nM
11,"N#Cc1cnn(-c2cccc(-c3nc([C@@H]4CCCN4C#N)no3)c2)c1 [Example 190, (S)-1-(3-(3-(1-Cyanopyrrolidin-2-yl)-1,2,4-oxadiazol-5-yl)phenyl)-1H-pyrazole-4-carbonitrile]",100 to 1000 nM
12,"N#Cc1cnn(-c2ccnc(-c3nc([C@@H]4CCCN4C#N)no3)c2)c1 [Example 191, (S)-1-(2-(3-(1-Cyanopyrrolidin-2-yl)-1,2,4-oxadiazol-5-yl)pyridin-4-yl)-1H-pyrazole-4-carbonitrile]",1000 to 10000 nM
13,"N#Cc1cnn(-c2cc(-c3nc([C@@H]4CCCN4C#N)no3)ccn2)c1 [Example 193, (S)-1-(4-(3-(1-Cyanopyrrolidin-2-yl)-1,2,4-oxadiazol-5-yl)pyridin-2-yl)-1H-pyrazole-4-carbonitrile]",1000 to 10000 nM
14,"N#CN1CCC(c2cc(-c3ccc(-c4ccccc4)cn3)n[nH]2)C1 (centres unmarked) [Example 194, 3-(5-(5-Phenylpyridin-2-yl)-1H-pyrazol-3-yl)pyrrolidine-1-carbonitrile]",< 100 nM
15,"N#CN1CCC(c2cc(-c3ccc(-c4ncccn4)cn3)n[nH]2)C1 (centres unmarked) [Example 195, 3-(3-(5-(Pyrimidin-2-yl)pyridin-2-yl)-1H-pyrazol-5-yl)pyrrolidine-1-carbonitrile]",< 100 nM
16,"N#CN1CCC(c2[nH]nc(-c3cccc(N4CCCCC4)n3)c2F)C1 (centres unmarked) [Example 196, 3-(4-Fluoro-3-(6-(piperidin-1-yl)pyridin-2-yl)-1H-pyrazol-5-yl)pyrrolidine-1-carbonitrile]",100 to 1000 nM
17,"N#Cc1cccc(C2CN(c3noc(C4CCN(C#N)C4)n3)C2)c1 (centres unmarked) [Example 197, 3-(3-(3-(3-Cyanophenyl)azetidin-1-yl)-1,2,4-oxadiazol-5-yl)pyrrolidine-1-carbonitrile]",100 to 1000 nM
18,"N#Cc1ccc(C2CN(c3noc(C4CCN(C#N)C4)n3)C2)cc1 (centres unmarked) [Example 198, 3-(3-(3-(4-Cyanophenyl)azetidin-1-yl)-1,2,4-oxadiazol-5-yl)pyrrolidine-1-carbonitrile]",100 to 1000 nM
19,"N#CN1CCC(c2n[nH]c(-c3ccnc(-c4ccccc4)c3)n2)C1 (centres unmarked) [Example 199, 3-(3-(2-Phenylpyridin-4-yl)-1H-1,2,4-triazol-5-yl)pyrrolidine-1-carbonitrile]",100 to 1000 nM
20,"N#Cc1ccc(-c2nccc(-c3nc([C@@H]4CCCN4C#N)no3)n2)cn1 [Example 201, (S)-5-(4-(3-(1-Cyanopyrrolidin-2-yl)-1,2,4-oxadiazol-5-yl)pyrimidin-2-yl)picolinonitrile]",100 to 1000 nM
21,"N#Cc1cnn(-c2cncc(-c3nc([C@@H]4CCCN4C#N)no3)n2)c1 [Example 202, (S)-1-(6-(3-(1-Cyanopyrrolidin-2-yl)-1,2,4-oxadiazol-5-yl)pyrazin-2-yl)-1H-pyrazole-4-carbonitrile]",100 to 1000 nM
22,"N#Cc1cc(-c2cncc(-c3nc([C@@H]4CCCN4C#N)no3)n2)ccn1 [Example 203, (S)-4-(6-(3-(1-Cyanopyrrolidin-2-yl)-1,2,4-oxadiazol-5-yl)pyrazin-2-yl)picolinonitrile]",< 100 nM
23,"N#Cc1cc(-c2cc(-c3nc([C@@H]4CCCN4C#N)no3)cnn2)ccn1 [Example 204, (S)-4-(5-(3-(1-Cyanopyrrolidin-2-yl)-1,2,4-oxadiazol-5-yl)pyridazin-3-yl)picolinonitrile]",100 to 1000 nM
